Reference: US7598269B2, “Methods and compositions for treating amyloid-related diseases” (Bellus Health (International) Limited, priority 2003, dated 2009)

Legend:
NAC peptide = target: T1, NAC peptide (Homo sapiens, UniProt P37840); assay: Binding to NAC peptide by electrospray mass spectrometry; settings: area of bound NAC-compound complex peaks / unbound NAC; compound:NAC 5:1, 6.6% EtOH, pH 7.4
T1 construct: NAC is a 35 amino acid long peptide with highly hydrophobic stretches
Protocol: The ability of the compounds of the present invention to bind to NAC peptide in aqueous solution was evaluated. The binding ability correlates to the intensities of the peptide-compound complex peaks observed by the Electrospray Mass Spectrum. Millipore distilled deionized water was used to prepare all aqueous solutions. For pH determination a Beckman Φ36 pH meter fitted with a Corning Semi-Micro Combination pH Electrode was employed.
The optimal cone voltage was determined to be 20V.
Mass spectrometry—Mass spectrometric analysis was performed using a Waters ZQ 4000 mass spectrometer equipped with a Waters 2795 sample manager. MassLynx 4.0 (earlier by MassLynx 3.5) was used for data processing and analysis. Test compounds were mixed with disaggregated peptides in aqueous media (6.6% EtOH) at a 5:1 ratio (20 μM NAC: 100 μM of test compound or 40 μM NAC:200 μM of test compound). The pH of the mixture was adjusted to 7.4 (±0.2) using 0.1% NaOH (3-5 μL). Periodically, NAC peptide solution at 20 μM or 40 μM was also prepared in the same fashion and run as control. The spectra were obtained by introducing the solutions to the electrospray source by direct infusion using a syringe pump at a flow rate of 25 μl/min, and scanning from 100 to 2100 Da in the positive mode. The scan time was 0.9 sec per scan with an inter-scan delay of 0.1 sec and the run time was 5 min for each sample. All the mass spectra were sum of 300 scans. The desolvation and source temperature was 70° C. and the cone and capillary voltage were maintained at 20 V and 3.2 kV respectively.
The total area under the peaks for the bound NAC-compound complex divided by total area under the peaks for unbound NAC was determined for each compound tested.

Aβ peptides = assay: Short term treatment of TgCRND8 mice: Aβ peptide levels; format: in vivo, Mouse; settings: after 14 and 28 days of treatment
Protocol: The short term therapeutic effect of 19 compounds of the invention was studied. These compounds were administered over a 14 or 28 day period at the end of which the levels of Aβ peptides in the plasma and brain of TgCRND8 animals were determined.
Starting at 11 weeks of age (±1 week) animals received daily administration of their respective treatment for a period of 14 or 28 days (groups 2-21), at a dose of 250 mg/kg at 10 ml/kg or of vehicle only (water; group 2) or 1% methyl cellulose only (group 21). The route of administration was subcutaneous for water-soluble compounds and oral for compounds solubilized in methylcellulose 1% (MC 1%). At the end of the treatment periods, plasma and perfused brains were collected for quantification of Aβ levels.
Aβ levels were evaluated in plasma and brain samples by ELISA using Human Aβ40 and Aβ42 Fluorometric ELISA kits from Biosource (Cat. No. 89-344 and 89-348) according to manufacturer's recommended procedures. […] The plate was incubated for 35 minutes at room temperature and the plate was read using a titer plate reader at an excitation wavelength of 460 nm and emission at 560 nm.
Compounds were scored based on their ability to modulate levels of Aβ peptides in the plasma and the cerebral soluble/insoluble levels in the brain. […] The strongest effects are recorded as “+++” or “−−−” while the weakest are shown as “+” or “−”.

Aβ40 = target: T2, Aβ40 (Homo sapiens, UniProt P05067); assay: Short term treatment of TgCRND8 mice: Aβ40 levels in plasma and brain (ELISA); format: in vivo, Mouse; settings: methylcellulose group; for Aβ40 Change Soluble / Aβ40 Change Insoluble: brain homogenate
T2 construct: from tissue; host or cells: plasma and brain homogenate of TgCRND8 transgenic mice (hAPP transgene)
Description: (§1) Transgenic mice, […]8, expressing the human amyloid precursor protein (hAPP) develop a pathology resembling Alzheimer's disease. In particular, high levels of Aβ40 and Aβ42 have been documented in the plasma and the brain of these animals at 8-9 weeks of age, followed by early accumulation of amyloid plaques similar to the senile plaques observed in […]. These animals also display progressive cognitive deficits that parallel the appearance of degenerative changes. See, […], et al., J. Biol. Chem. 276, 21562-70 (2001). The short term therapeutic effect of 19 compounds of the invention was studied. […] The following abbreviations are used to designate these animals from the 3rd and 4th generation backcross in the present protocol: TgCRND8-2.B6C3F1 (N3); TgCRND8-2.B6C3F1 (N4). Baseline animals (Group 1) consisted of naive TgCRND8-2.B6C3F1(N3) at 11±1 weeks of age. These mice were used to determine the Aβ levels in the plasma and brain of naive transgenic animals at the initiation of treatment. […] At the end of the treatment periods, plasma and perfused brains were collected for quantification of Aβ levels. […] Plasma samples were immediately frozen and stored at -80° C. pending analysis. The brains were removed, frozen, and stored at -80° C. awaiting analysis. […] Samples were spun at 15000 g for 20 minutes and the supernatants were transferred to fresh tubes. […] The tubes were vortexed for 30 seconds and frozen at -80° C. […] Samples were thawed at room temperature, sonicated at 80° C. for 15 minutes and frozen again. This cycle was repeated 3 times to ensure homogeneity and samples were returned to -80° C. pending analysis. Aβ levels were evaluated in plasma and brain samples by ELISA using Human Aβ40 and Aβ42 Fluorometric ELISA kits from Biosource (Cat. […] In short, samples were thawed at room temperature, sonicated for 5 minutes at 80° C. (sonication for brain homogenates; no sonication for plasma samples) and kept on ice. Aβ peptides were captured using 100 μl of the diluted samples to the plate and incubated without shaking at 4° C. overnight. The samples were aspirated and the wells were rinsed 4 times with wash buffer obtained from the Biosource ELISA kit. The anti-Aβ40 or anti-Aβ42 rabbit polyclonal antiserum (specific for the Aβ40 or Aβ42 peptide) was added (100 μl) and the plate was incubated at room temperature for 2 hours with shaking. The wells were aspirated and washed 4 times before adding 100 μl of the alkaline phosphatase labeled anti-rabbit antibody and incubating at room temperature for 2 hours with shaking. The plates were then rinsed 5 times and the fluorescent substrate (100 μl) was added to the plate. The plate was incubated for 35 minutes at room temperature and the plate was read using a titer plate reader at an excitation wavelength of 460 nm and emission at 560 nm. Compounds were scored based on their ability to modulate levels of Aβ peptides in the plasma and the cerebral soluble/insoluble levels in the brain. Levels of Aβ observed in the plasma and brain of treated animals were normalized using values from vehicle-treated (water) or methylcellulose-treated control groups and ranked according to the strength of the pharmacological effect. Increases in the levels of Aβ peptides are indicated using “+” symbols, while decreases in the levels of Aβ peptides are indicated using “-” symbols. The strongest effects are recorded as “+++” or “---” while the weakest are shown as “+” or “-”.

Aβ42 = target: T3, Aβ42 (Homo sapiens, UniProt P05067); assay: Short term treatment of TgCRND8 mice: Aβ42 levels in plasma and brain (ELISA); format: in vivo, Mouse; settings: methylcellulose group; for Aβ42 Change: plasma, TgCRND8 mice
T3 construct: from tissue; host or cells: plasma and brain homogenate of TgCRND8 transgenic mice (hAPP transgene)
Description: as §1

[1] = brain homogenate, Day 14, 250 mg/kg daily oral
[2] = brain homogenate, Day 28, 250 mg/kg daily oral

T3 sequence (P05067 672-713 limits assumed): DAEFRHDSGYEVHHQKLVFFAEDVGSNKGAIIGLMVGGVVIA
T2 sequence (P05067 672-711 limits assumed): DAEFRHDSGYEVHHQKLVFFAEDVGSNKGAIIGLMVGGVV

O=C1NCCCC[C@@H]1NCCCS(=O)(=O)[O-].[Na+]
Binding Strength (NAC peptide): + (Weak; when the total binding is between 70% and 30%)

CCCCCCCCCCCCCC[N+](C)(C)CCCS(=O)(=O)[O-] [NA, CH3(CH2)13N^+(CH3)2(CH2)3SO3^−]
Binding Strength (NAC peptide): ++ (Moderate; when the total binding is between 120% and 70%)

CC(C)(C)NCCCS(=O)(=O)O [Compound BX, 3-(t-butyl)amino-1-propanesulfonic acid]
levels of Aβ peptides in the plasma (Aβ peptides): significant increase

CH3(CH2)9N^+(CH3)2(CH2)3SO3^− [DB]
Binding Strength (NAC peptide): +++ (Strong; when the total binding is 120% and higher)

NCCCCS(=O)(=O)[O-].[Na+]
Binding Strength (NAC peptide): − (None; when the total binding is between 30% and 0%)

CCCCCCCCCCCC[N+](C)(C)CCCS(=O)(=O)[O-] [DF, CH3(CH2)11N^+(CH3)2(CH2)3SO3^−]
Binding Strength (NAC peptide): ++ (Moderate; when the total binding is between 120% and 70%)

O=S(=O)(O)CCCNC1CCCc2ccccc21 (stereo not drawn) [Compound BU, 3-(1,2,3,4-tetrahydro-1-naphthylamino)-1-propanesulfonic acid]
Aβ40 Change Soluble (Aβ40; Day 14, 250 mg/kg daily oral): − (Decreases in the levels of Aβ of 5 to 19% are scored as “−”)
Aβ40 Change Insoluble (Aβ40; Day 28, 250 mg/kg daily oral): −− (decreases of 20 to 38% are scored as “−−”)
Aβ40 Change Soluble (Aβ40; Day 28, 250 mg/kg daily oral): −− (decreases of 20 to 38% are scored as “−−”)
Aβ40 Change (Aβ40; plasma, Day 14, 250 mg/kg daily oral, TgCRND8 mice): − (Decreases in the levels of Aβ of 5 to 19% are scored as “−”)
Aβ42 Change Insoluble (Aβ42; [1]): −−− (decreases of 39% or more are scored as “−−−”)
Aβ42 Change Insoluble (Aβ42; [2]): −− (decreases of 20 to 38% are scored as “−−”)

CCCCCCCCCNCCCS(=O)(=O)O [DA, 3-nonylamino-1-propanesulfonic acid]
Aβ40 Change Insoluble (Aβ40; Day 14, 250 mg/kg daily oral): −−− (decreases of 39% or more are scored as “−−−”)
Aβ40 Change Soluble (Aβ40; Day 14, 250 mg/kg daily oral): − (Decreases in the levels of Aβ of 5 to 19% are scored as “−”)
Aβ40 Change Insoluble (Aβ40; Day 28, 250 mg/kg daily oral): −− (decreases of 20 to 38% are scored as “−−”)
Aβ40 Change Soluble (Aβ40; Day 28, 250 mg/kg daily oral): −− (decreases of 20 to 38% are scored as “−−”)
Aβ42 Change Insoluble (Aβ42; [1]): −− (decreases of 20 to 38% are scored as “−−”)
Aβ42 Change Soluble (Aβ42; [1]): −− (decreases of 20 to 38% are scored as “−−”)
Aβ42 Change Insoluble (Aβ42; [2]): −− (decreases of 20 to 38% are scored as “−−”)
Aβ42 Change (Aβ42; Day 14, 250 mg/kg daily oral): + (increases in the levels of Aβ (relative to untreated control) of 20 to 39% are scored as “+”)
Aβ42 Change (Aβ42; Day 28, 250 mg/kg daily oral): + (increases in the levels of Aβ (relative to untreated control) of 20 to 39% are scored as “+”)
